Data: patent publication US9416103B2, “Use of the aminoalkylindole JWH-073-M4 and related compounds as neutral CB1 receptor antagonists for the treatment of alcoholism, drug abuse, obesity, and obesity-related diseases” (The Board of Trustees of the University of Arkansas, priority 2012, dated 2016)
Several values for one entry are separate records, joined by “and”; a condition that tells them apart may be missing. Equal values may be shown once. Read-outs that look alike come from different tables or passages of the source. Marks after values point to notes of the source that are not given here.

Legend:
CB1Rs = CB1Rs (Mus musculus (Mouse), UniProt P47746); test: [35S]GTPγS binding assay (G-protein activation) in mouse brain homogenates; type: biochemical
Method: Mouse brain homogenates for in vitro assays were prepared as previously described. Briefly, whole brains were harvested from B6SJL mice, snap-frozen in liquid nitrogen and stored at −80° C. On the day membrane homogenates were to be prepared, brains were thawed on ice, then pooled in a 40 mL Dounce glass homogenizer and suspended in 5 volumes of ice cold homogenization buffer (50 mM HEPES, pH 7.4, 3 mM MgCl2, and 1 mM EGTA). Brains were then subjected to 10 complete strokes with an A pestle, followed by centrifugation at 40,000×g for 10 minutes at +4° C. Resulting supernatants were discarded, and the pellet was resuspended, homogenized and centrifuged similarly twice more, with supernatants being discarded. For the final resuspension and homogenization with a B pestle, ice-cold 50 mM HEPES was used in place of homogenization buffer, and homogenates were aliquoted and stored at −80° C. Protein concentrations of homogenates were determined using the BCA™ Protein Assay (Thermo Scientific, Rockford, Ill.).
[^35S]GTPγS binding was performed as previously described. Briefly, 25 μg of mouse brain homogenates were incubated for 30 minutes at 30° C. with 0.1 nM [^35S]GTPγS, 10 μM GDP, and either cannabinoid+/−antagonist, 10 μM unlabeled GTPγS (non-specific binding) or vehicle (total binding), in triplicate, in a volume of 1 mL of buffer containing 20 mM HEPES, 10 mM MgCl2, 100 mM NaCl, 20 units/L adenosine deaminase, 0.05% BSA and the appropriate DMSO (0.1%) and/or ethanol (<0.2%) vehicle. Assay buffer containing 100 mM KCl, instead of 100 mM NaCl, was used to increase basal G-protein activity in experiments examining inverse agonism. Reactions were terminated by quick vacuum filtration through Whatman GF/B glass fiber filters, followed by five washes with ice-cold buffer (20 mM HEPES, 0.05% BSA). Filters were immediately placed into 7 mL scintillation vials to which 4 mL of ScintiVerse™ BD Cocktail scintillation fluid was added. Bound radioactivity was determined after overnight incubation at room temperature and shaking by liquid scintillation spectrophotometry with an efficiency of 93% (Tri Carb 2100 TR Liquid Scintillation Analyzer, Packard Instrument Company, Meriden, Conn.). Specific binding is expressed as picomoles of [^35S]GTPγS bound per mg of protein.
Curve fitting and statistical analyses for in vitro experiments were performed using GraphPad Prism™ version 5.0b (GraphPad Software Inc., San Diego, Calif.). The Cheng-Prusoff equation [45] was used to convert the experimental IC50 values obtained from competition receptor binding experiments to Ki values, a quantitative measure of receptor affinity. Non-linear regression for one-site competition was used to determine the IC50 for competition receptor binding. Curve fitting of concentration-effect curves via non-linear regression was also employed to determine the EC50 (a measure of potency) and Emax (a measure of efficacy) for [^35S]GTPγS concentration-effects experiments. […] Data are expressed as mean±SEM. The Student's t-test was used to determine statistical significance (P<0.05) between two groups, while a one-way ANOVA, followed by Tukey's Multiple Comparison post-hoc test, was used to determine statistical significance (P<0.05) between three or more groups.

hCB2Rs [1] = biological target: T1, hCB2Rs (Homo sapiens (Human), UniProt P34972); test: Competition receptor binding with [3H]CP-55,940 in CHO-hCB2 cell homogenates
Method: Competition receptor binding was performed as previously described. […] Reactions were terminated by rapid vacuum filtration through Whatman GF/B glass fiber filters, followed by five washes with ice-cold buffer (50 mM Tris, 0.05% BSA). Filters were immediately placed into 7 mL scintillation vials to which 4 mL of ScintiVerse™ BD Cocktail scintillation fluid (Fisher Scientific, Fair Lawn, N.J.) was added. Bound radioactivity was determined after overnight incubation at room temperature and shaking, by liquid scintillation spectrophotometry with an efficiency of 44% (Tri Carb 2100 TR Liquid Scintillation Analyzer, Packard Instrument Company, Meriden, Conn.). Specific binding is expressed as total binding minus non-specific binding, and is graphed for each data point as a percentage of specific binding occurring in the absence of any competitor.
The prepared analogues were subjected to in vitro pharmacological testing, which included receptor binding and functional assays at both cannabinoid receptors. Initial receptor binding screens at both CB1Rs and CB2Rs were conducted for the analogues prepared.

mice = test: Thermoregulation assay, antagonism of JWH-073-induced hypothermia; type: in vivo, mouse; conditions: 10 mg/kg
Excerpt: Our hypothesis is that a dual activity CB1R antagonist/CB2R agonist will reduce the reinforcing effects of EtOH as well as reduce the conditioned rewarding effects of ethanol in mice. The compounds selected will firstly be put through a thermoregulation assay as a screen for potential cannabinoid receptor activity. Thermoregulation will be used as a screen because of the well-established hypothermic effects seen with the use of cannabinoid ligands. This assay was done using glass radiotelemetry probes that were surgically implanted in each mouse, which monitor core temperature in response to drug administration. […] This screen does indeed confirm the in vivo cannabinoid activity of TV-5-249 and TV-6-41 and it also illustrates the evident antagonist effects against agonist induced hypothermia.

[2] = biological target: CB1Rs endogenously expressed in Neuro2A cells (Mus musculus (Mouse), UniProt P47746); test: Adenylyl cyclase (AC) inhibition via CB1Rs endogenously expressed in Neuro2A cells; type: cell-based
[3] = test system: mice trained to discriminate THC; test: THC drug discrimination (generalization of JWH-018 to THC); type: in vivo, mouse; conditions: M4 10 mg/kg i.p. + JWH-018 1 mg/kg; training dose THC 10 mg/kg i.p.
NIH Swiss mice [4] = test: Catalepsy, horizontal bar test; type: in vivo, mouse; conditions: M4 10 mg/kg i.p. + JWH-018 3 mg/kg i.p.
NIH Swiss mice [5] = test: Locomotor activity by biotelemetry (cannabinoid tetrad); type: in vivo, mouse; conditions: M4 10 mg/kg i.p. + JWH-018 3 mg/kg i.p.
hCB2Rs [6] = biological target: T1, hCB2Rs; test: Inhibition of forskolin-stimulated cAMP production (adenylyl cyclase) in intact CHO-hCB2R cells; type: cell-based
Method: Adenylyl cyclases are a family of membrane-bound enzymes that catalyze the intracellular production of the second messenger cAMP from ATP. Adenylyl cyclase activity is modulated by activated G-proteins: Gs-proteins stimulate activity, while Gi/o-proteins are inhibitory. Thus, agonists of G-protein coupled receptors (GPCRs) coupled to Gi/o-proteins, such as hCB2Rs, decrease cAMP production due to inhibition of adenylyl cyclase activity. In this assay, intact CHO-hCB2R cells are preincubated with [^3H]-adenine and treated with forskolin (10 or 30 μM) to stimulate adenylyl cyclase activity.
A functional assay screen for the inhibition of adenylate cyclase (AC) activity was chosen as the subsequent assay. […] Reaching full-receptor occupancy, which is predicted to produce maximal efficacy, is desirable at 10 μM concentration of all the compounds was used.

[7] = CHO-hCB2 homogenates (100 μg), read-out: affinity (Ki) at hCB2Rs

SMILES: CCCCn1cc(C(=O)c2cccc3ccccc23)c2ccccc21 [JWH-073, (1-butyl-1H-indole-3-yl)-1-naphthalenyl-methanone]
- [35S]GTPγS Binding, 1 μM (CB1Rs; 1 μM): 0.27 ± 0.04 pmol/mg
- [35S]GTPγS Binding, +O-2050 (1 μM) (CB1Rs; 1 μM cannabinoid (100 nM for CP-55,940) co-incubated with CB1R antagonist O-2050 1 μM): 0.07 ± 0.02 pmol/mg
- [35S]GTPγS Binding Emax (CB1Rs; concentration-effect, mouse brain homogenates): 0.27 ± 0.01^a pmole/mg
- EC50 (CB1Rs; concentration-effect, mouse brain homogenates, read-out: [35S]GTPγS Binding EC50): 276 ± 65.3 nM
- [35S]GTPγS Binding, 10 μM (CB1Rs; receptor-saturating concentration 10 μM): 0.28±0.03 pmole/mg and 0.28 ± 0.03^c pmole/mg
- Ki (hCB2Rs [1]; [7]): 9.84 ± 0.92 nM
- Ki (hCB2Rs [1]; Table 3, read-out: hCB2R Ki): 9.8 ± 0.9 nM
- hypothermic effect (mice): profound hypothermic effect

SMILES: CCCCn1cc(C(=O)c2cccc3ccccc23)c2cccc(O)c21 [Compound M4]
- effect on basal [35S]GTPγS binding levels when tested alone (CB1Rs; 0.1 nM to 10 μM): neither significantly increased (characteristic of agonists), nor decreased
- Kb (CB1Rs; EC90 concentration of CP-55,940 (100 nM), from IC50 by modified Cheng-Prusoff, read-out: Kb, antagonism of CP-55,940-induced [35S]GTPγS binding): 40.3 nM
- antagonism of CB1R agonists and inverse agonists on [35S]GTPγS binding (CB1Rs; M4 10 μM co-incubated with CP-55,940, JWH-018, JWH-073, Rimonabant or AM251): significantly antagonized the action of agonists
- Kb (CB1Rs; M4 1, 3, 10 μM shifting JWH-018 curve, read-out: Kb, Schild analysis against JWH-018): ~40 nM and 48.1 nM and 48 nM
- Schild plot slope (CB1Rs; against JWH-018): 0.97
- inhibition of adenylyl cyclase activity, reversed by O-2050 (1 μM) ([2]; M4 1 μM): inhibited activity of the downstream intracellular effector adenylyl cyclase
- IC50 ([2]; Neuro2A cells): 225 nM
- inhibition of AC-activity via CB1Rs, concentration-effect ([2]; Neuro2A cells): 50-60%
- Ki (hCB2Rs [1]; CHO-hCB2 homogenates (100 μg), listed as JWH-073-M4, read-out: affinity (Ki) at hCB2Rs): ~250 nM
- Ki (hCB2Rs [1]; [7]): 251 ± 91.1 nM
- Ki (hCB2Rs [1]; Table 3, read-out: hCB2R Ki): 78.3 ± 36.2 nM
- antagonism of generalization of JWH-018 to THC (THC-appropriate responding) [3]: No change in THC-appropriate responding
- antagonism of JWH-018-induced catalepsy (NIH Swiss mice [4]): no difference
- antagonism of JWH-018-induced locomotor suppression (NIH Swiss mice [5]): no difference
- inhibition of cAMP production relative to vehicle, concentration effect curve (hCB2Rs [6]; 10 μM forskolin, n=1): 81%
- inhibition of intracellular cAMP production, single concentration (hCB2Rs [6]; 10 μM, 30 μM forskolin): 48%
- potency (IC50) of inhibition of intracellular cAMP production (hCB2Rs [6]; CHO-hCB2R cells): nanomolar potency
